Experiments:
[1] = prior art; cited from earlier work
[2] = prior art WO2003/014079; cited from earlier work
[3] = Solubility of crystal forms in pH 6.8 buffer solution (HPLC of filtrate); format: physicochemical; conditions: for Solubility in pH 6.8 buffer: 20 mg in 1 mL pH 6.8 buffer, suspension equilibrated for 1 hour, 0.45 μm filter, HPLC; for Solubility compared with crystal form A: in physiological solution
Method: The solubility of several new crystal forms prepared in the above examples and Form A (prepared according to the method of WO2003/014079) in a pH buffer solution (pH 6.8) was determined. Precisely weigh 20 mg Form I, Form II, Form V and Form A in a 2-mL glass vial, add 1 mL of pH 6.8 buffer, seal with cap, and mix on a rotating mixer. After the suspension was equilibrated for 1 hour, the mixture was filtered through a 0.45 μm needle filter, and the concentration of flibanserin in the filtrate was analyzed by HPLC to obtain the solubility of different crystal forms.

| Solubility in pH 6.8 buffer [3] [mg/mL] | Solubility compared with crystal form A [3] | Structure (SMILES) | Solubility in water [1] | Stability under pressure and mechanical stress conditions [2] |
| --- | --- | --- | --- | --- |
| 0.004 | greater | O=c1[nH]c2ccccc2n1CCN1CCN(c2cccc(C(F)(F)F)c2)CC1 [Form I] |  |  |
| 0.010 | greater | O=c1[nH]c2ccccc2n1CCN1CCN(c2cccc(C(F)(F)F)c2)CC1 [Form V] |  |  |

The remaining lines, values behind:

| Structure (SMILES) | Solubility in pH 6.8 buffer [3] [mg/mL] | Solubility compared with crystal form A [3] | Solubility in water [1] | Stability under pressure and mechanical stress conditions [2] |
| --- | --- | --- | --- | --- |
| O=c1[nH]c2ccccc2n1CCN1CCN(c2cccc(C(F)(F)F)c2)CC1 [Form A] |  |  | very small |  |
| O=c1[nH]c2ccccc2n1CCN1CCN(c2cccc(C(F)(F)F)c2)CC1 [Form B] |  |  |  | low stability |
| O=c1[nH]c2ccccc2n1CCN1CCN(c2cccc(C(F)(F)F)c2)CC1 [Form II] | 0.008 | greater |  |  |
